From patent US9896423B2, “Deuterium substituted 1-[2-(2,4-dimethyl-phenylsulfanyl)-phenyl]piperazine compound or derivatives thereof, and pharmaceutical composition and use thereof” (Jiangsu Jibeier Pharmaceutical Co. Ltd., priority 2014, dated 2018)
Values joined by “and” are separate entries in the source; they are usually repeats but may differ in a detail not shown here. Equal values may be shown once. Where a name gives a salt, the structure may show the parent alone. Read-outs that look alike come from different tables or passages of the source.

Assays:
[1] = Pharmacokinetic test in rats, gavage administration; type: in vivo, SD rats;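 as to AUC0-t (area under the plasma concentration-time curve from zero to the last sampling time): plasma area under the curve AUC0-1 in μg·h/L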
Experimental: The preferred compound of the present disclosure was assessed in rats for its pharmacokinetic profile.
SD rats, male and female, weighing 150 to 250 g
Mobile phase: 10 mM ammonium formate aqueous solution:methanol=15:85
The ionization source was electrospray ionization source. The detection mode was positive mode. Multiple reaction monitoring (MRM) was used as the scanning mode. The ion reaction for the quantitative analysis was the following: m/z was 305.2\150.0 for XX, and 256.1\167.1 for diphenhydramine (the internal standard).
XX or YY was orally administered with single dose of 20 mg/kg to six SD rats, one half of which were male and the other half was female. XX or YY was dissolved in 10% hydroxypropyl-β-cyclodextrin. […]
After the blood collection, the tubes were immediately gently turned upside down at least five times to ensure sufficient mixing, and placed on ice. Heparin was added for anticoagulation. The samples were centrifuged at 8000 rpm for 5 min to separate serum from erythrocyte. The serum was transferred with a pipettor to 2 mL polypropylene (PP) tubes, which were marked with the name of the compound and the time points, and stored in a refrigerator at −40° C. before LC-MS analysis. Samples with high concentrations were diluted with rat blank plasma.
2.5 μL of Meth-H2O and 5 μL of the internal standard solution (20 ng/mL, IS) were added to 50 μL of the plasma. Subsequently, 150 μL of methanol was added to the mixture to precipitate protein and the samples were then centrifuged at 13000 rpm for 5 min. The upper organic phase was taken out, filtrated with a 0.22 μM microporous membrane, and 2 μL of the sample was injected for the LC-MS analysis.

Male ICR mice = experiment: Mice tail suspension test; type: in vivo; conditions: for effect on length of time that the tail-suspended mice stopped moving vs blank control: two successive weeks; for Duration without Move within 6 min: mice tail suspension, gavage 14 days, n = 10, x ± s
Text: The following method is used for testing the antidepression effect of the compound of the present application. ICR mice or SD rats, gavaged for two successive weeks, were subjected to mice swimming test, mice tail suspension test and rats swimming test. See below for details of the tests and results.
The animals, medicaments, calculation of dosages to the mice, preparation of drug solution and apparatus are the same as those in the mice swimming test.
The medicaments were correspondingly administered by gavage, once a day, to the animals in the groups for 14 successive days, with the amount of 0.2 ml per 10 g of body weight. The mice were subjected to tail suspension one hour later after the last oral administration. The suspension continued for 6 min.
The data was given as “average±standard deviation” (x±s). One-way analysis of variance (ANOVA) was used for data difference statistics. Differences among the groups were determined by P<0.05.

[2] = both sexes, Sprague-Dawley, rat, plasma, oral, 20 mg/kg, 20 mg/kg oral, individual rats 1-6, read-out: Concentrations in Plasma of Rats after Oral Administration
[3] = both sexes, Sprague-Dawley, rat, plasma, oral, 20 mg/kg, 20 mg/kg oral, mean of 6 rats, read-out: Concentrations in Plasma of Rats after Oral Administration, Mean ± SD
[4] = rats, oral 20 mg/kg, individual rats 1-6, 20 mg/kg

concentration at 1.5 h ([1]; both sexes, Sprague-Dawley, rat, plasma, oral, 20 mg/kg, 20 mg/kg oral, 1.5 h, mean of 6 rats, read-out: Concentrations in Plasma of Rats after Oral Administration, Mean ± SD): 103 ± 26.9 ng/mL
concentration at 2 h [1, 2]: 78.6 ng/mL
concentration at 2 h [1, 3]: 98.2 ± 19.5 ng/mL
concentration at 3 h [1, 2]: 58 ng/mL
concentration at 3 h [1, 3]: 68.7 ± 12 ng/mL
concentration at 4 h [1, 2]: 63.4 ng/mL
concentration at 4 h [1, 3]: 65.1 ± 10.4 ng/mL
concentration at 6 h [1, 2]: 46.1 ng/mL
concentration at 6 h [1, 3]: 44.1 ± 7.27 ng/mL
concentration at 8 h [1, 2]: 22.1 ng/mL
concentration at 8 h [1, 3]: 23.5 ± 4.49 ng/mL
concentration at 10 h [1, 2]: 16.7 ng/mL
concentration at 10 h [1, 3]: 16.5 ± 2.41 ng/mL
concentration at 12 h [1, 2]: 8.86 ng/mL
concentration at 12 h [1, 3]: 8.24 ± 1.69 ng/mL
concentration at 14 h ([1]; both sexes, Sprague-Dawley, rat, plasma, oral, 20 mg/kg, 20 mg/kg oral, 14 h, mean of 6 rats, read-out: Concentrations in Plasma of Rats after Oral Administration, Mean ± SD): 4.27 ± 1.58 ng/mL
concentration at 24 h ([1]; both sexes, Sprague-Dawley, rat, plasma, oral, 20 mg/kg, 20 mg/kg oral, 24 h, mean of 6 rats, read-out: Concentrations in Plasma of Rats after Oral Administration, Mean ± SD): 0.75 ± 0.51 ng/mL
bioavailability ([1]; both sexes, Sprague-Dawley, rat, plasma, oral, 20 mg/kg, rats, oral 20 mg/kg vs iv 2 mg/kg, n = 6, read-out: F % (absolute bioavailability), Mean ± SD): 12.2 ± 1.72%
AUC(0-t) ([1]; both sexes, Sprague-Dawley, rat, plasma, po, 20 mg/kg, gavage administration of 20 mg/kg, rats, read-out: AUC0-t in the rats' plasma): 583 ± 82.7 ng·h/mL
AUC0-t increased comparing with that of its non-deuterium counterpart ([1]; rats, gavage 20 mg/kg, relative to Vortioxetine): 19%
SMILES: [2H]C([2H])([2H])c1ccc(Sc2ccccc2N2CCNCC2)c(C([2H])([2H])[2H])c1 [XX, 1-{2-[2,4-bis(trideuteriomethyl)phenylsulfanyl]phenyl}piperazine hydrobromic acid salt]
F % ([1]; rats, oral 20 mg/kg vs iv 2 mg/kg, individual rats 1-6): 11.5% and 10.1% and 13.8% and 14.6% and 11.9%
AUC0-t (area under the plasma concentration-time curve from zero to the last sampling time) [1, 4]: 552.3 ng·h/mL and 487.5 ng·h/mL and 659.3 ng·h/mL and 703.9 ng·h/mL and 569.8 ng·h/mL
AUC0-∞ [1, 4]: 552.5 ng·h/mL and 488.9 ng·h/mL and 666.0 ng·h/mL and 705.3 ng·h/mL and 571.4 ng·h/mL
Cmax [1, 4]: 91.6 ng/mL and 77.8 ng/mL and 120.8 ng/mL and 144 ng/mL and 115.8 ng/mL
MRT0-∞ [1, 4]: 4.92 h and 5.44 h and 5.08 h and 4.24 h and 4.28 h
t1/2 [1, 4]: 4.0 h and 1.7 h and 2.8 h and 3.5 h and 2.6 h and 2.9 h
effect on length of time that the tail-suspended mice stopped moving vs blank control (Male ICR mice; 1.5 mg/kg gavage): showed a tendency to shorten
effect on length of time that the tail-suspended mice stopped moving vs blank control (Male ICR mice; 3 mg/kg gavage): markedly shortened
Duration without Move within 6 min (Male ICR mice; 1.5 mg/kg): 212.6 ± 54.9 s
Duration without Move within 6 min (Male ICR mice; 3 mg/kg): 152.9 ± 35.4 s
